In the supplement of paper PMC10307832:

Experiments:
Assay in all cases: relative viability (nuclei count vs DMSO), 5 days (fraction); higher = more cells survive
VX-11e + Pictilisib = compound: CC1=CN=C(N=C1C2=CNC(=C2)C(=O)N[C@H](CO)C3=CC(=CC=C3)Cl)NC4=C(C=C(C=C4)F)Cl [VX-11e] + CS(=O)(=O)N1CCN(Cc2cc3nc(-c4cccc5[nH]ncc45)nc(N4CCOCC4)c3s2)CC1 [Pictilisib] (partner 1 µM)
Method in brief: (§1)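 Lung cancer cell lines were seeded in 1536-well plates and dosed by pin tool the next day, with either a single drug or a fixed anchor-drug dose combined with five library-drug doses (not always all listed) spaced in √10 steps. Five days later, one step fixed the cells and stained their nuclei (final 0.05% Triton X-100, 1% formaldehyde, 1 ug/ml Hoechst), and nuclei were counted on 4× images. Relative viability is the nuclei count in treated wells divided by the count in vehicle wells, and each value is the median of duplicate plates.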

VX-11e + Navitoclax = compound: CC1=CN=C(N=C1C2=CNC(=C2)C(=O)N[C@H](CO)C3=CC(=CC=C3)Cl)NC4=C(C=C(C=C4)F)Cl [VX-11e] + CC1(C)CCC(c2ccc(Cl)cc2)=C(CN2CCN(c3ccc(C(=O)NS(=O)(=O)c4ccc(N[C@H](CCN5CCOCC5)CSc5ccccc5)c(S(=O)(=O)C(F)(F)F)c4)cc3)CC2)C1 [Navitoclax] (partner 0.5 µM)
Method in brief: as §1

VX-11e + Bortezomib = compound: CC1=CN=C(N=C1C2=CNC(=C2)C(=O)N[C@H](CO)C3=CC(=CC=C3)Cl)NC4=C(C=C(C=C4)F)Cl [VX-11e] + CC(C)C[C@H](NC(=O)[C@H](Cc1ccccc1)NC(=O)c1cnccn1)B(O)O [Bortezomib] (partner 0.002 µM)
Method in brief: as §1

VX-11e + Linsitinib = compound: CC1=CN=C(N=C1C2=CNC(=C2)C(=O)N[C@H](CO)C3=CC(=CC=C3)Cl)NC4=C(C=C(C=C4)F)Cl [VX-11e] + C[C@]1(O)C[C@@H](c2nc(-c3ccc4ccc(-c5ccccc5)nc4c3)c3c(N)nccn32)C1 [Linsitinib] (partner 1 µM)
Method in brief: as §1

VX-11e + Olaparib = compound: CC1=CN=C(N=C1C2=CNC(=C2)C(=O)N[C@H](CO)C3=CC(=CC=C3)Cl)NC4=C(C=C(C=C4)F)Cl [VX-11e] + O=C(c1cc(Cc2n[nH]c(=O)c3ccccc23)ccc1F)N1CCN(C(=O)C2CC2)CC1 [Olaparib] (partner 8 µM)
Method in brief: as §1

VX-11e + Crizotinib = compound: CC1=CN=C(N=C1C2=CNC(=C2)C(=O)N[C@H](CO)C3=CC(=CC=C3)Cl)NC4=C(C=C(C=C4)F)Cl [VX-11e] + C[C@@H](Oc1cc(-c2cnn(C3CCNCC3)c2)cnc1N)c1c(Cl)ccc(F)c1Cl [Crizotinib] (partner 1 µM)
Method in brief: as §1

VX-11e + Foretinib = compound: CC1=CN=C(N=C1C2=CNC(=C2)C(=O)N[C@H](CO)C3=CC(=CC=C3)Cl)NC4=C(C=C(C=C4)F)Cl [VX-11e] + COc1cc2c(Oc3ccc(NC(=O)C4(C(=O)Nc5ccc(F)cc5)CC4)cc3F)ccnc2cc1OCCCN1CCOCC1 [Foretinib] (partner 0.25 µM)
Method in brief: as §1

VX-11e + Alpelisib = compound: CC1=CN=C(N=C1C2=CNC(=C2)C(=O)N[C@H](CO)C3=CC(=CC=C3)Cl)NC4=C(C=C(C=C4)F)Cl [VX-11e] + Cc1nc(NC(=O)N2CCC[C@H]2C(N)=O)sc1-c1ccnc(C(C)(C)C(F)(F)F)c1 [Alpelisib] (partner 2 µM)
Method in brief: as §1

VX-11e + Lapatinib = compound: CC1=CN=C(N=C1C2=CNC(=C2)C(=O)N[C@H](CO)C3=CC(=CC=C3)Cl)NC4=C(C=C(C=C4)F)Cl [VX-11e] + CS(=O)(=O)CCNCc1ccc(-c2ccc3ncnc(Nc4ccc(OCc5cccc(F)c5)c(Cl)c4)c3c2)o1 [Lapatinib] (partner 2 µM)
Method in brief: as §1

VX-11e = compound: CC1=CN=C(N=C1C2=CNC(=C2)C(=O)N[C@H](CO)C3=CC(=CC=C3)Cl)NC4=C(C=C(C=C4)F)Cl [VX-11e]
Method in brief: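 Following overnight incubation at 37 °C, lung cancer cell lines in 1536-well plates were pinned with five library-drug doses (not always all listed) in √10 steps on vehicle-anchored plates. The cells then spent 5 days without medium change before a combined fix, permeabilisation and Hoechst stain, 4× imaging and MetaXpress nuclear counts. Viability is the treated-to-vehicle ratio of nuclei, taken as the median across plates. Only plates with control CV below 25% and at least one doubling passed.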

Calu-6
relative viability (VX-11e + Pictilisib; first compound 0.04 µM): 1.03
relative viability (VX-11e + Pictilisib; first compound 0.1265 µM): 0.874
relative viability (VX-11e + Pictilisib; first compound 0.4 µM): 0.907
relative viability (VX-11e + Pictilisib; first compound 1.265 µM): 0.261
relative viability (VX-11e + Pictilisib; first compound 4 µM): 0.0991
relative viability (VX-11e + Navitoclax; first compound 0.04 µM): 0.994
relative viability (VX-11e + Navitoclax; first compound 0.1265 µM): 0.786
relative viability (VX-11e + Navitoclax; first compound 0.4 µM): 0.737
relative viability (VX-11e + Navitoclax; first compound 1.265 µM): 0.219
relative viability (VX-11e + Navitoclax; first compound 4 µM): 0.109
relative viability (VX-11e + Bortezomib; first compound 0.04 µM): 1.08
relative viability (VX-11e + Bortezomib; first compound 0.1265 µM): 1.04
relative viability (VX-11e + Bortezomib; first compound 0.4 µM): 1.03
relative viability (VX-11e + Bortezomib; first compound 1.265 µM): 0.333
relative viability (VX-11e + Bortezomib; first compound 4 µM): 0.206
relative viability (VX-11e + Linsitinib; first compound 0.04 µM): 1.08
relative viability (VX-11e + Linsitinib; first compound 0.1265 µM): 0.926
relative viability (VX-11e + Linsitinib; first compound 0.4 µM): 0.935
relative viability (VX-11e + Linsitinib; first compound 1.265 µM): 0.179
relative viability (VX-11e + Linsitinib; first compound 4 µM): 0.115
relative viability (VX-11e + Olaparib; first compound 0.04 µM): 0.672
relative viability (VX-11e + Olaparib; first compound 0.1265 µM): 0.579
relative viability (VX-11e + Olaparib; first compound 0.4 µM): 0.562
relative viability (VX-11e + Olaparib; first compound 1.265 µM): 0.31
relative viability (VX-11e + Olaparib; first compound 4 µM): 0.108
relative viability (VX-11e + Crizotinib; first compound 0.04 µM): 0.829
relative viability (VX-11e + Crizotinib; first compound 0.1265 µM): 0.839
relative viability (VX-11e + Crizotinib; first compound 0.4 µM): 0.861
relative viability (VX-11e + Crizotinib; first compound 1.265 µM): 0.396
relative viability (VX-11e + Crizotinib; first compound 4 µM): 0.145
relative viability (VX-11e + Foretinib; first compound 0.04 µM): 0.969
relative viability (VX-11e + Foretinib; first compound 0.1265 µM): 0.869
relative viability (VX-11e + Foretinib; first compound 0.4 µM): 0.829
relative viability (VX-11e + Foretinib; first compound 1.265 µM): 0.397
relative viability (VX-11e + Foretinib; first compound 4 µM): 0.103
relative viability (VX-11e + Alpelisib; first compound 0.04 µM): 1.12
relative viability (VX-11e + Alpelisib; first compound 0.1265 µM): 0.98
relative viability (VX-11e + Alpelisib; first compound 0.4 µM): 0.94
relative viability (VX-11e + Alpelisib; first compound 1.265 µM): 0.456
relative viability (VX-11e + Alpelisib; first compound 4 µM): 0.125
relative viability (VX-11e + Lapatinib; first compound 0.04 µM): 1.07
relative viability (VX-11e + Lapatinib; first compound 0.1265 µM): 1.03
relative viability (VX-11e + Lapatinib; first compound 0.4 µM): 1.05
relative viability (VX-11e + Lapatinib; first compound 1.265 µM): 0.364
relative viability (VX-11e + Lapatinib; first compound 4 µM): 0.226
relative viability (VX-11e; 0.04 µM): 1.08
relative viability (VX-11e; 0.1265 µM): 0.978
relative viability (VX-11e; 0.4 µM): 0.975
relative viability (VX-11e; 1.265 µM): 0.513
relative viability (VX-11e; 4 µM): 0.163
